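48-hour exposure; five concentrations; linearly interpolated endpoints. TGI marks complete inhibition of growth.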
Legend:
Assay in all cases: DTP human tumour cell line panel, 48 h
IGROV1 ovarian = test system: IGROV1 ovarian
SNB-75 CNS = test system: SNB-75 CNS
SR leukemia = test system: SR leukemia
HCT-15 colon = test system: HCT-15 colon
HOP-92 NSCLC = test system: HOP-92 NSCLC
M14 melanoma = test system: M14 melanoma
PC-3 prostate = test system: PC-3 prostate
NCI-H522 lung = test system: NCI-H522 lung
RXF 393 renal = test system: RXF 393 renal
CAKI-1 renal = test system: CAKI-1 renal

Compound	TGI (IGROV1 ovarian) [µM]	TGI (SNB-75 CNS) [µM]	TGI (SR leukemia) [µM]	TGI (HCT-15 colon) [µM]	TGI (HOP-92 NSCLC) [µM]	TGI (M14 melanoma) [µM]	TGI (PC-3 prostate) [µM]	TGI (NCI-H522 lung) [µM]	TGI (RXF 393 renal) [µM]	TGI (CAKI-1 renal) [µM]
CCc1ccc2oc(-c3cc(O)c(-c4nc5cc(CC)ccc5o4)cc3O)nc2c1	> 100	> 100	> 100	> 100	> 100	> 100	> 100			
CCCSc1ccc2[nH]c(/N=C/c3ccco3)cc2c1	> 100	> 100	35.7	> 100	> 100	> 100	> 100	78.2	> 100	> 100
Cc1cc(C)cc(Nc2cc(=O)[nH]c(=O)[nH]2)c1	> 100	> 100	> 100	> 100	> 100	> 100	> 100		> 100	
CCCCCC(=O)NC(=S)Nc1nn[nH]n1	> 100	> 100	> 100	> 100	> 100	> 100	> 100	> 100	> 100	> 100
Cc1ccc(/C(O)=C/C(=O)C(=O)/C=C(\O)c2ccc(C)cc2C)c(C)c1	4.42	4.19	4.8	4.47	8.6	3.27	5.64	4.53	4.22	3.69
O=c1oc2ccccc2c(Nc2ccc3c(c2)Oc2ccccc2O3)c1[N+](=O)[O-]	48.9	30.2	> 100	> 100	35.2	> 100	32.5	65.5	34.6	> 100
Cc1cn(C(Cc2ccccc2)OCCO)c(=O)[nH]c1=O (stereo unspecified)	> 100	> 100	> 100	> 100	> 100	> 100	> 100		> 100	> 100
O=c1c2ncn(COCCCl)c2n(-c2ccccc2)c(=S)n1-c1ccccc1	> 100	> 100	> 100	> 100	> 100	> 100	> 100	> 100	> 100	> 100
CNC(=O)Oc1ccc(-c2cn3cc(OC(=O)NC)ccc3n2)cc1	> 100	> 100	> 100	> 100	> 100	> 100	> 100		> 100	> 100
CC1=NN2C(=N)/C(=C/c3ccco3)C(=O)N=C2S1	> 100	> 100	> 100	> 100	> 100	> 100	> 100	> 100	> 100	> 100
NP(=O)(OCC1=CC(=O)c2ccccc2C1=O)N(CCBr)CCBr (stereo unspecified)	38.3	> 35.8	9.75	20.1	31.5		46	10.9	21.8	8.1
C=C1C(=O)CC2C(=O)C(C)(O)CC/C=C(\C)C(=O)CC12 (stereo unspecified)	37.5	> 100	> 55.1	37.7	> 57.3	31	83	17.1	40.3	7.98
CC1CCOc2ccc(cc2)C=Nc2ccc(cc2)CCc2ccc(cc2)N=Cc2ccc(cc2)OCC1 (stereo unspecified)	> 100	77.3	> 100	> 100	> 100	> 100	> 100	> 100	> 100	> 100
O=c1[nH]/c(=C/c2ccc(OCc3ccccc3)cn2)c(=O)[nH]/c1=C/c1ccc(O)cc1	13.4	3.05	4.88	> 100	> 77.6	3.78	> 100	0.806	7.38	3.08
CN(C)Cc1cc(C(=O)/C=C/c2ccccc2Cl)cc(CN(C)C)c1O	28	19.7	35.5	36	39.6	23.3	29.2	18	41.7	14.4
COc1ccc(Nc2nc(NS(=O)(=O)c3cc(C)c(Cl)cc3S)n[nH]2)cc1	> 100	> 100	> 100	> 100	> 100	> 100	> 100	> 100	> 100	> 100
Cc1ccc([C@H]2CC(=O)C[C@H](c3ccc(C)cc3)C23C(=O)c2ccccc2C3=O)cc1	> 100	34.1	34.3	> 100	49.7	> 100	84.5	26.5	39	> 100
CC(=O)O[C@H]1CC[C@@]2(C)C(=CC[C@H]3[C@@H]4C[C@H](N5CCCC5)[C@H](OC(C)=O)[C@@]4(C)CC[C@@H]32)C1	> 100	> 100	> 100	> 100	> 100	33.9	> 100	> 100	> 100	> 100
CCC1(C(=O)OC(C)(C)C)OC12C(C)CCCC2C (stereo unspecified)	> 100	97.7	38.3	> 100	85.9	> 100	> 100	> 100	36.4	> 100
Cc1ccc(S(=O)(=O)OCC(=O)O)cc1	> 100		> 100	> 100	> 100	> 100	> 100	> 100	> 100	> 100

Source: PubChem BioAssay (NCI)
